This note sets out measurements from ChEMBL document CHEMBL5550100, “Discovery of LHF418 as a new potent SOS1 PROTAC degrader” (Bioorg Med Chem, 2024).

Experiment [1] concerns the target T1, Protein cereblon/Son of sevenless homolog 1 (Homo sapiens, UniProt Q07889+Q96SW2). Put plainly: PROTAC activity at CRBN/SOS1 in human A549 cells assessed as half life of SOS1 at 3 uM incubated for 24 hrs by immunoblot analysis. The experiment is classed as cell-based. For orientation: A western blot detects proteins with antibodies after separation by electrophoresis.

For experiment [2], the target named is T1, Protein cereblon/Son of sevenless homolog 1. Put plainly: PROTAC activity at CRBN/SOS1 in human A549 cells assessed as protein degradation at 10 uM incubated for 24 hrs by immunoblot analysis. The experiment is classed as cell-based.
The next experiment concerns MIA PaCa-2. Description: Inhibition of colony formation in human MIA PaCa-2 cells upto 30 uM incubated for 14 days by crystal violet staining based analysis. The format is functional, cell-based. The settings on record: time 14.0 day.
For experiment [3], the system named is A549. Put plainly: Effect on GSPT1 in human A549 cells upto 10000 nM incubated for 24 hrs by immunoblot analysis. The format is functional, cell-based.
Experiment [4] deals with T1, Protein cereblon/Son of sevenless homolog 1. Put plainly: PROTAC activity at CRBN/SOS1 in MLN-4924-pretreated human A549 cells assessed as protein degradation at 1 uM incubated for 24 hrs by immunoblot analysis. The format is cell-based.
Experiment [5] concerns the target GTPase KRas (Homo sapiens) (UniProt P01116). Put plainly: Inhibition of KRAS signalling in serum-starved human A549 cells assessed as decrease in ERK1/2 phosphorylation upto 10000 nM preincubated for 24 hrs followed by EGF stimulation for 1 hr by immunoblot analysis. The experiment is classed as cell-based. The settings on record: time 25.0 hrs.
The target in experiment [6] is T1, Protein cereblon/Son of sevenless homolog 1. Description: PROTAC activity at CRBN/SOS1 in human A549 cells assessed as protein degradation at 3 uM incubated for 24 to 72 hrs by immunoblot analysis. The experiment is classed as cell-based. The settings on record: time 24-72 hrs.
For experiment [7] the target is unchanged. Description: PROTAC activity at CRBN/SOS1 in human A549 cells assessed as protein degradation incubated for 24 hrs by immunoblot analysis. The experiment is classed as cell-based.
For experiment [8] the target is unchanged. Put plainly: PROTAC activity at CRBN/SOS1 in human A549 cells assessed as half life of SOS1 at 3 uM by immunoblot analysis. The experiment is classed as cell-based.
For experiment [9] the target is unchanged. Description: PROTAC activity at CRBN/SOS1 in human A549 cells assessed as protein degradation at 10 uM incubated for 24 hrs by immunoblot analysis relative to control. The experiment is classed as cell-based.
The target is the same in experiment [10]. Description: PROTAC activity at 6His-tagged human CRBN TBD domain (318 to 425 residues) expressed in Escherichia coli BL21(DE3)/GST-tagged recombinant human SOS1 (569 to 1049 residues) expressed in Escherichia coli BL21(DE3) protein-protein interaction assessed as ternary complex formation incubated for 1 hr by AlphaScreen assay. (In general: Bead proximity is the source of the signal in Alpha formats.)

Experiment [11] has as its system A549. Put plainly: Effect on SOS2 in human A549 cells upto 10000 nM incubated for 24 hrs by immunoblot analysis. The experiment is classed as functional, cell-based.
For experiment [12], the target named is T1, Protein cereblon/Son of sevenless homolog 1. Description: PROTAC activity at CRBN/SOS1 in BI3406-pretreated human A549 cells assessed as protein degradation at 1 uM incubated for 24 hrs by immunoblot analysis. The format is cell-based.
Experiment [13] shares this target. Description: PROTAC activity at CRBN/SOS1 in human A549 cells assessed as protein degradation at 3 uM by immunoblot analysis. The conditions noted are these: time <= 72.0 hrs, TDE = time-dependent effect. The experiment is classed as cell-based.
Experiment [14] deals with Protein cereblon/Son of sevenless homolog 1 (Homo sapiens, UniProt Q07889+Q96SW2, G12D). Put plainly: PROTAC activity at CRBN/SOS1 in human HPAF-II cells harboring KRAS G12D mutant assessed as protein degradation by immunoblot analysis. The experiment is classed as cell-based.
For experiment [15], the target named is T1, Protein cereblon/Son of sevenless homolog 1. Put plainly: PROTAC activity at CRBN/SOS1 in CHX-pretreated human A549 cells assessed as protein degradation at 3 uM incubated for 12 hrs by immunoblot analysis. The format is cell-based.
Experiment [16] concerns the target Protein cereblon/Son of sevenless homolog 1 (Homo sapiens, UniProt Q07889+Q96SW2, G12C). Put plainly: PROTAC activity at CRBN/SOS1 in human MIA PaCa-2 cells harboring KRAS G12C mutant assessed as protein degradation by immunoblot analysis. The format is cell-based.
Experiment [17] concerns the target T1, Protein cereblon/Son of sevenless homolog 1. Put plainly: PROTAC activity at CRBN/SOS1 in bafilomycin-pretreated human A549 cells assessed as protein degradation at 1 uM incubated for 24 hrs by immunoblot analysis. The format is cell-based.
The target is the same in experiment [18]. Put plainly: PROTAC activity at CRBN/SOS1 in lenalidomide-pretreated human A549 cells assessed as protein degradation at 1 uM incubated for 24 hrs by immunoblot analysis. The experiment is classed as cell-based.
For experiment [19] the target is unchanged. Description: PROTAC activity at CRBN/SOS1 in human A549 cells assessed as protein degradation upto 10000 nM incubated for 24 hrs by immunoblot analysis relative to control. The format is cell-based.
For experiment [20] the target is unchanged. Description: PROTAC activity at CRBN/SOS1 in human A549 cells assessed as protein degradation at 0.1 uM incubated for 24 hrs by immunoblot analysis relative to control. The format is cell-based.
Experiment [21] shares this target. Description: PROTAC activity at CRBN/SOS1 in MG-132-pretreated human A549 cells assessed as protein degradation at 1 uM incubated for 24 hrs by immunoblot analysis. The experiment is classed as cell-based.
The target is the same in experiment [22]. Description: PROTAC activity at CRBN/SOS1 in human A549 cells assessed as protein degradation at 1 uM incubated for 24 hrs by immunoblot analysis relative to control. The format is cell-based.

The source made the active and inactive calls. The calls are words filed in the database; no cut-off is given here.

For the compound `C[C@@H]1C[C@@H]([C@H](O)CC2CC(=O)NC(=O)C2)C(=O)[C@@H](C)C1`, the T1/2 in [1] is more than 24 h.
Consider `COc1cc2nc(C)nc(N[C@H](C)c3cc(N)cc(C(F)(F)F)c3)c2cc1O[C@H]1CCN(C(=O)CCCCCCCC(=O)Nc2cccc3c2CN(C2CCC(=O)N(C)C2=O)C3=O)C1` (stereo partly specified), for which the outcome in experiment [2] was inactive.
What is called DC50 is the midpoint of the concentration-degradation curve. A word on the Emax: it is the size of the effect at its maximum, as opposed to the concentration needed. Consider `COc1cc2nc(C)nc(N[C@H](C)c3cc(N)cc(C(F)(F)F)c3)c2cc1O[C@H]1CCN(C(=O)CCCCCCCC(=O)Nc2cccc3c2CN(C2CCC(=O)NC2=O)C3=O)C1` (stereo partly specified), for which the inhibition entry (in the experiment on MIA PaCa-2; in experiment [5]) was “Active” in each case. Besides, the outcome (in the experiment with A549 [3]; in [4]; in the experiment on A549 [11]; in [12]; in experiment [18]; in experiment [21]) was inactive. In addition, the result in experiment [6], in [10], in [15] and in experiment [17] was Active. The figures for the DC50 in [7], in experiment [14] and in experiment [16] were 0.209 µM, 0.354 µM and 0.54 µM, respectively. The Activity entry is “Dose-Dependent Effect” in experiment [7] (dose <= 10000.0 µM), 69% in experiment [9], “Tde” in [13] and 68% in experiment [20]. Besides, the T1/2 in experiment [8] turned out to be 22.5 h. In addition, in experiment [19], the Emax was more than 80%.
For `COc1cc2nc(C)nc(N[C@H](C)c3cc(N)cc(C(F)(F)F)c3)c2cc1O[C@H]1CCN(C(=O)CCCCC(=O)Nc2ccc3c(c2)CN(C2CCC(=O)NC2=O)C3=O)C1` (stereo partly specified), the Activity in experiment [22] was determined as 10%; in experiment [9], 15.6%; in experiment [20], 7.1%.
